Literature values as cited in patent publication US12365919B2, “Serum-free suspension system for lentiviral production” (priority 2016, dated 2025).

Tested on: lentiviral vector production
Settings: serum-based culture system; worked only ~50% as well as caffeine

## CCCC(=O)[O-].[Na+] [sodium butyrate]
  lentiviral vector production enhancement, relative to caffeine: ~50%
